Laboratory results published in ChEMBL document CHEMBL5727538, “Pyridazinones as PARP7 inhibitors” (2020).

target: T1, Protein mono-ADP-ribosyltransferase TIPARP (Homo sapiens, UniProt Q7Z3E1); test: Enzymatic Assay for Inhibition of PARP7: Displacement of Probe A, a biotinylated probe binding to the TIPARP active site, was measured using a time-resolved fluorescence energy transfer (TR-FRET) assay. 20 nL of a dose response curve of each test compound was spotted in black 384-well polystyrene proxiplates (Perkin Elmer) using a Mosquito (TTP Labtech). Reactions were performed in a 8 μL volume by adding 6 μL of TIPARP and Probe A in assay buffer (20 mM HEPES pH=8, 100 mM NaCl, 0.1% bovine serum albumin, 2 mM DTT and 0.002% Tween20), incubating with test compound at 25° C. for 30 min, then adding 2 μL of ULight-anti 6×His and LANCE Eu-W1024 labeled streptavidin (Perkin Elmer). The final concentrations of TIPARP and Probe A were 6 nM and 2 nM, respectively. The final concentration of ULight-anti 6xHis and LANCE Eu-W1024 labeled streptavidin were 4 nM and 0.25 nM, respectively. Reactions were incubated at 25° C. for an additional 30 min, then read on an Envision platereader equipped with a LANCE/DELFIA top mirror (Perkin Elmer) using excitation of 320 nm and emission of 615 nm and […] with a 90 μs delay. The ratio of the 665/615 nm emission were calculated for each well to determine the amount of complex of TIPARP and Probe A in each well. […] The Hill Coefficient is normally allowed to float but may also be fixed at 1 in a 3-parameter fit. Y is the % inhibition and x is the compound concentration.
T1 sequence (Q7Z3E1 whole entry): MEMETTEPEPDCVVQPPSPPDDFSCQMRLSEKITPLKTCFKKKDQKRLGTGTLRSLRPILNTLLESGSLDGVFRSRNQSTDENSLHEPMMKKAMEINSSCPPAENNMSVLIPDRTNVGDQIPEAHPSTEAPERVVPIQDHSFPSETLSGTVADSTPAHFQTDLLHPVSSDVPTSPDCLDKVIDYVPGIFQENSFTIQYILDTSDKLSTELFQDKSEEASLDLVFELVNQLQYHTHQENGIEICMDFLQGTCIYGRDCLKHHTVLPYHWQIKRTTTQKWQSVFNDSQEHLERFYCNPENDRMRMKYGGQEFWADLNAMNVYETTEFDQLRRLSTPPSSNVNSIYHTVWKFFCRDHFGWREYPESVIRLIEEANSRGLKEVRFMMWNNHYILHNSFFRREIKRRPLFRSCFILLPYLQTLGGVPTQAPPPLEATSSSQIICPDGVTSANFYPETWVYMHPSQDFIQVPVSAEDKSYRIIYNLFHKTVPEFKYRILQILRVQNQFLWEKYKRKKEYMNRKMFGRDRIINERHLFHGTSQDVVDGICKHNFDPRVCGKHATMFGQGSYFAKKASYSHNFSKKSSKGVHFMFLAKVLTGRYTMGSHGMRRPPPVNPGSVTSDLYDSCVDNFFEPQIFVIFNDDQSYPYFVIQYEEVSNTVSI

IC50 | SMILES
< 100 nM | N#Cc1ccc(N2CCN(C(=O)CC3COCCN3c3cn[nH]c(=O)c3C(F)(F)F)CC2)nc1 (stereo not drawn)
< 100 nM | N#Cc1ccc(N2CCN(C(=O)[C@H]3C[C@H](OC[C@@H]4CCCN4c4cn[nH]c(=O)c4C(F)(F)F)C3)CC2)nc1
< 100 nM | O=c1[nH]ncc(N2Cc3cccc(O)c3C2)c1C(F)(F)F
100 to 1000 nM | O=C(CCOC[C@@H]1CCCN1c1cn[nH]c(=O)c1C(F)(F)F)N[C@H]1CC[C@H](Nc2ccccn2)CC1

Further lines, the molecule ahead of its results:

SMILES | IC50
C[C@@H](COCCC(=O)N1CCC(Nc2ncc(C(F)(F)F)s2)C1)Nc1cn[nH]c(=O)c1C(F)(F)F (stereo partly drawn) | < 100 nM
O=C(CCOC[C@H](Nc1cn[nH]c(=O)c1C(F)(F)F)C1CCNCC1)N1CCN(c2ncc(C(F)(F)F)cn2)CC1 | < 100 nM
O=C(COC[C@@H]1CCCN1c1cn[nH]c(=O)c1C(F)(F)F)N[C@H]1CC[C@@H](Nc2ccccn2)CC1 | 100 to 1000 nM
N#Cc1ccc(N2CCN(C(=O)CCOCCOC3CN(c4cn[nH]c(=O)c4C(F)(F)F)C3)CC2)nc1 | > 1000 nM
